Here are results for ten compounds from ChEMBL document CHEMBL1135233, “Cytotoxic, antifouling bromotyramines: a synthetic study on simple marine natural products and Their analogues” (Bioorg Med Chem Lett, 2002).

Converted amounts (≈) assume the structure as drawn.

As a reminder, the EC50 is the concentration that produces a half-maximal response. Read a low EC50 as higher potency in that assay. What is called GI50 is the concentration at which growth is held to half of that of the control. In general, IC50 refers to the concentration needed to halve the response being measured. Low readings indicate greater potency, high ones weaker potency.

The test system of one data set is Amphibalanus amphitrite. Nature of the data set: Antifouling activity of compound against Balanus amphitrite expressed by inhibition of settlement of barnacle cyprids. The class given is functional.
A further data set has as its system MCF7. Description: Tested for growth inhibition against human MCF-7 breast cancer cell line at 100 uM. Format: functional.
The test system of data set [1] is NCI-H460. Description: Tested for growth inhibition against human NCI-H460 lung cancer cell line at 100 uM. Format: functional.
A further data set relates to SF-268. Nature of the data set: Tested for growth inhibition against human SF-268 CNS cancer cell line at 100 uM. Format: functional.
Another data set deals with CCRF-CEM. Description: Tested for the cytotoxicity against CCRF-CEM leukemia cell line […]. The class given is functional. The conditions noted are these: Homo sapiens.
The next data set relates to Hs-578T. Description: Tested for the cytotoxicity against Hs 578.T breast cancer cell line. The class given is functional. The conditions noted are these: Homo sapiens.
A further data set concerns NCI-H226. Nature of the data set: Tested for the cytotoxicity against NCI-H226 lung cancer cell line […]. The class given is functional. The conditions noted are these: Homo sapiens.
The next data set deals with SW-620. Nature of the data set: Tested for the cytotoxicity against SW-620 colon cancer cell line […]. The class given is functional. The settings on record: Homo sapiens.
Data set [2] in a line: Tested for the lethality dose against barnacle cyprids of Balanus amphitrite. The settings on record: Amphibalanus amphitrite; read-out: LD50 (the source's name).
For data set [3], the system named is NCI-H460. Nature of the data set: Tested for the cytotoxicity against NCI-H460 lung cancer cell line […]. Format: functional. The conditions noted are these: Homo sapiens.
For a further data set, the system named is P388. Nature of the data set: Tested for the inhibition against P388 murine leukemia cell. The class given is functional, cell-based. The conditions noted are these: Mus musculus.

As for `NCCOc1c(Br)cc(CCN)cc1Br`, the EC50 in the data set on Amphibalanus amphitrite was 0.8 mg/L (≈ 2.37 µM). Also, the results for the Growth in the data set with MCF7, in the data set on NCI-H460 [1] and in the data set on SF-268 were 39%, 70% and 70%, respectively.

In the data set on Amphibalanus amphitrite, `COc1c(Br)cc(CCN)cc1Br` gave an EC50 of 0.07 mg/L (≈ 0.227 µM). The GI50 is less than 0.01 µM with CCRF-CEM, 0.2 µM with Hs-578T, less than 0.01 µM in the data set with NCI-H226 and less than 0.01 µM in the data set on SW-620. The Growth in the data set with MCF7 was determined as 8%; in the data set on NCI-H460 [1], 53%; in the data set on SF-268, 16%. Besides, the LC50 in [2] stood at 0.2 mg/L (≈ 0.647 µM).

Turning to `NCCCOc1ccc(CCN)cc1`, in the data set on Amphibalanus amphitrite, the half-maximal effective concentration (EC50) was greater than 50 mg/L. The Growth came out at 104% with MCF7, 120% in the data set with NCI-H460 [1] and 120% in the data set on SF-268.

`NCCCOc1c(Cl)cc(CCN)cc1Cl`: in the data set with Amphibalanus amphitrite, the EC50 amounted to 33 mg/L (≈ 125 µM). In addition, the Growth with MCF7 is -53%; in the data set with NCI-H460 [1], 93%; in the data set on SF-268, 85%.

Take `NCCCCOc1c(Br)cc(CCN)cc1Br`: the response in the data set on Amphibalanus amphitrite was half-maximal at 6 mg/L (≈ 16.4 µM) (EC50). The Growth with MCF7 came out at 19%; in the data set with NCI-H460 [1] it was 25%; with SF-268, 50%.

In the data set on Amphibalanus amphitrite, `CCCCCCCC(=O)NCCc1cc(Br)c(OC)c(Br)c1` yielded a 50% effective concentration (EC50) of 0.2 mg/L (≈ 0.46 µM). The GI50 with CCRF-CEM came out at 0.4 µM. The Growth in the data set with MCF7 is -74%; with NCI-H460 [1], 1%; in the data set with SF-268 it was -68%. In addition, in data set [2], the LC50 turned out to be 1 mg/L (≈ 2.3 µM).

Turning to `CC(=O)NCCc1cc(Br)c(O)c(Br)c1`, the Growth in the data set on MCF7 is 88%; with NCI-H460 [1] it was 105%; in the data set on SF-268, 84%.

`CCCCCCCCNCCc1cc(Br)c(OC)c(Br)c1` showed a concentration for a half-maximal effect (EC50) in the data set with Amphibalanus amphitrite of 0.008 mg/L (≈ 0.019 µM). Moreover, the results for the Growth in the data set on MCF7, with NCI-H460 [1] and in the data set with SF-268 were -82%, -83% and -84%, respectively. Besides, it took 0.05 µM to inhibit growth in the data set with NCI-H460 [3] by half (GI50). The LC50 in data set [2] worked out at 0.03 mg/L (≈ 0.0712 µM).

With `N#CC(=O)NCCCOc1c(Br)cc(CCN)cc1Br` [CERATINAMINE], the Growth with MCF7 was determined as 7%; with NCI-H460 [1], 82%; with SF-268, 39%.

As to `NCCCOc1c(Br)cc(CCN)cc1Br` [MOLOKA'IAMINE], the EC50 in the data set with Amphibalanus amphitrite is 5 mg/L (≈ 14.2 µM). Also, the Growth in the data set on MCF7 is listed as 38%; in the data set on NCI-H460 [1] it was 68%; with SF-268, 62%. The half-maximal inhibitory concentration (IC50) with P388 worked out at 2.1 mg/L (≈ 5.96 µM).
